The target of experiment [1] is T1, human α2A (Homo sapiens, UniProt P08913).
T1 construct: expressed in transfected cells; host or cells: CHO cells (CHO-C10)
T1 sequence (P08913 1-465): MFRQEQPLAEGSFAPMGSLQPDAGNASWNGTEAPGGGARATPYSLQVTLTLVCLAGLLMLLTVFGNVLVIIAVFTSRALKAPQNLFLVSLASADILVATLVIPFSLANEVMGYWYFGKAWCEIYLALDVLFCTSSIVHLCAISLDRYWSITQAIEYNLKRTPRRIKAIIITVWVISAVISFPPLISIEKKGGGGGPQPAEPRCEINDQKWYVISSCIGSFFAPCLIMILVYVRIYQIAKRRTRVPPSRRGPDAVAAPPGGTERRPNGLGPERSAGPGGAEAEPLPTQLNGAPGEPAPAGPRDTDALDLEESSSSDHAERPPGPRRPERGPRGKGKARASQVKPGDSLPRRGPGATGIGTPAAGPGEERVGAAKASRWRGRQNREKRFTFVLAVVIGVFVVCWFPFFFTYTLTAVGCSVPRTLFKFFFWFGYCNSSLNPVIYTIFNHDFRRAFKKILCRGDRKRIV
The experiment in a line: Receptor binding, [3H]rauwolscine, CHO-C10 cells expressing human α2A. The note with it: CHO-C10, 22° C., 30 min. The procedure:
(§1) Cell preparation: Chinese hamster ovary (CHO) cells expressing the human α2A and human α2C (CHO-C10 and CHO-C4 respectively) receptors and CHO cells (CHO-RNG) expressing the rat α2B, adrenoceptor were grown to near confluence in Dulbecco's modified Eagle's medium supplemented with 10% fetal bovine serum using standard cell culture methods. Cells were harvested by scraping and placed into cold buffer of the following composition: 50 mM Tris-HCl, 5 mM EDTA, pH 7.4). […] The pellet fraction was washed (resuspended in Tris-HCl, pH 8 buffer and centrifuged for 15-20 minutes at 49,000× g) 2 times and stored at -100° until binding assay.
(§2) Binding Studies: The radioligands [^3 H]rauwolscine (specific activity 80 Ci/mmol) and [^3 H]prazosin (specific activity 76 Ci/mmol) were obtained from New England Nuclear, Boston, Mass. Frozen membrane pellet was resuspended in 25 mM glycine/glycine, pH 7.5 and incubated with radioligand under the following conditions: CHO-C10, CHO-RNG, CHO-C4-[^3 H]rauwolscine, 22° C., 30 minutes; RKC-[^3 H]rauwolscine, 0° C., 120 minutes; and, HCC-[^3 H]prazosin, 22° C., 30 minutes in a final volume of 500 ul. At the end of the incubation period, the samples were filtered through glass filters (Whatman GF/B) in a 96 well cell harvester and rapidly washed four times with 4 mL of iced-cold 50 mM Tris-HCl buffer. The filters were then oven dried and transferred to scintillation vials containing 10 mL of Beckman's Ready Protein® scintillation cocktail for counting. […] Protein concentrations were determined with a protein assay kit from Bio Rad. Binding isotherms, equilibrium dissociation and affinity constants were analyzed and determined by the non-linear least squares curve fitting programs EBDA (BioSoft) or AccuFit Competition/Saturation by Beckman.
(§3) Cell Preparation: Chinese hamster ovary (CHO) cells expressing the human α2A (CHO-C10) and the rate α2B (CHO-RNG) […] were grown to near confluence in Dulbecco's modified Eagle's medium supplemented with 10% fetal bovine serum using standard cell culture methods. Cells were harvested by scraping and placed into cold buffer of the following composition: 50 mM Tris-HCl, 5 mM EDTA, pH 7.4). […] The pellet fraction was washed (resuspended in Tris-HCl, pH 8 buffer and centrifuged for 15-20 minutes at 49,000× g) 2 times and stored at […] until binding assay.
(§4) The radioligands [^3 H] rauwolscine (specific activity 80 Ci/mmol) and [^3 H] prazosin (specific activity 76 Ci/mmol) were obtained from New England Nuclear, Boston, Mass. Frozen membrane pellet was resuspended in 25 mM glycine/glycine, pH 7.4 and incubated with radioligand under the following conditions: CHO-C10, CHO-RNG, CHO-C4-[^3 H]rauwolscine, 22° C., 30 min.; and, HCC-[^3 H]prazowsin, 22° C., 30 minutes in a final volume of 500 ul. At the end of the incubation period, the samples were filtered through glass fiber filters (Whatman GF/B) in a 96 well cell harvester and rapidly washed four times which 4 mL of iced-cold 50 mM Tris-CHI buffer. The filters were then oven dried and transferred to scintillation vials containing 5 mL of Beckman's Ready Protein® scintillation cocktail for counting. […] Protein concentrations were determined with a protein assay kit from Bio lad. Binding isotherms, equilibrium dissociation and affinity constants were analyzed and determined by the non-linear least squares curve fitting programs AccuFit Competition/Saturation by Beckman.
(§5) Representative compounds of the present invention were tested according to the procedures given above. […] The receptor binding studies and K1 are measures of the affinity of a compound for a particular receptor.

For experiment [2], the target named is T2, rat α2B (Rattus norvegicus, UniProt P19328).
T2 construct: expressed in transfected cells; host or cells: CHO cells (CHO-RNG)
T2 sequence (P19328 1-453): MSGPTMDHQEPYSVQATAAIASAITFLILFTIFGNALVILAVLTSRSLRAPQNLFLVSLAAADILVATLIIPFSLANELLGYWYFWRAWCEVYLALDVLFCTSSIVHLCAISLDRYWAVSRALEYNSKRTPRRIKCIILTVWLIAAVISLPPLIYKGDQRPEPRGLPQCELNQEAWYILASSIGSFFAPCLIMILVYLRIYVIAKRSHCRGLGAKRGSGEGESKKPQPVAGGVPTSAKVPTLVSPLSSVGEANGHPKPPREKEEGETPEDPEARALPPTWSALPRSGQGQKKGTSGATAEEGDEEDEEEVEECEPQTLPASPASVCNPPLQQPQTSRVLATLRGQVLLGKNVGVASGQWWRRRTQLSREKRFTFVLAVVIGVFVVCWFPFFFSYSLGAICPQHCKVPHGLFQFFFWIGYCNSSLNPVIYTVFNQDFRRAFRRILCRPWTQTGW
The experiment in a line: Receptor binding, [3H]rauwolscine, CHO-RNG cells expressing rat α2B. The method, then:
as §1, §2, §3, §4, §5

Experiment [3] has as its target T3, human α2C (Homo sapiens, UniProt P18825).
T3 construct: expressed in transfected cells; host or cells: CHO cells (CHO-C4)
T3 sequence (P18825 1-462): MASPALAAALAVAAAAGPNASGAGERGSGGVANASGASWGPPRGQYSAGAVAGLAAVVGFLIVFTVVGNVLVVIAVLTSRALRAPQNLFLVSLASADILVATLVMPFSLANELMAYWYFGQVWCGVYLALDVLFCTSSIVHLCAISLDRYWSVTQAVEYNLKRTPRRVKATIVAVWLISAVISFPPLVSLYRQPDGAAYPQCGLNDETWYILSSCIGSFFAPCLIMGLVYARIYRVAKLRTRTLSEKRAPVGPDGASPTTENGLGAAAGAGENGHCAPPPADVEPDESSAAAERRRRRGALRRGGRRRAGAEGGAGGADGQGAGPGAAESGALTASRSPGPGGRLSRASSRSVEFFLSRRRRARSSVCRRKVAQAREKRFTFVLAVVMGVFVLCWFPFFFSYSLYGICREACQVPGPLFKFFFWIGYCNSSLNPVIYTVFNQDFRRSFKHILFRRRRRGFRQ
The experiment in a line: Receptor binding, [3H]rauwolscine, CHO-C4 cells expressing human α2C. The note with it: CHO-C4, 22° C., 30 min. The procedure:
as §1, §2, §4, §5

In experiment [4] the target is I2B. The experiment in a line: Receptor binding, I2B.
[5] abbreviates: [3H]rauwolscine, CHO-RNG, 22° C., 30 min, read-out: Ki α2B.

Where two headings read alike, the source gives them in different places.

Regarding `COc1ccc(NC2=NCCN2)c(C)c1OC` [Example 12], the inhibitory constant (Ki) was found to be 5.2 nM in experiment [1], 196 nM in experiment [2] (setting [5]), 93 nM in experiment [3] and 507 nM in experiment [4].

Regarding `Cc1c(NC2=NCCN2)ccc2c1NCCN2` [Example 8], the Ki stood at 9.6 nM in experiment [1], 139 nM in experiment [2] (setting [5]), 124 nM in experiment [3] and 10000 nM in experiment [4].

With `c1cc2c(cc1NC1=NCCN1)NCCN2` [Example 7], the Ki in experiment [1] was 35 nM; in experiment [2] (setting [5]), 262 nM; in experiment [3], 463 nM; in experiment [4] it was 10000 nM.

In the case of `Nc1cc(Cl)c(NC2=NCCN2)c(Cl)c1` [Example 3], the Ki in experiment [1] was 2.9 nM; in experiment [2] (setting [5]) it was 4.8 nM; in experiment [3] it was 21 nM; in experiment [4] it was 38600 nM.

Regarding `Cc1cccc(Nc2ncc[nH]2)c1C` [Example 18], the Ki in experiment [1] was determined as 52 nM; in experiment [2] (setting [5]), 295 nM; in experiment [3], 180 nM; in experiment [4], 13 nM.

As for `Cc1ccccc1NC1=NCCN1` [Example 1], the Ki turned out to be 8.9 nM in experiment [1], 49 nM in experiment [2] and 70 nM in experiment [3].

As to `CC1CNc2c(ccc(NC3=NCCN3)c2Br)N1` (stereo not drawn) [Example 10], the inhibition constant (Ki) came to 24 nM in experiment [1], 194 nM in experiment [2] (setting [5]), 293 nM in experiment [3] and 3260 nM in experiment [4].

For `O=C1COc2ccc(NC3=NCCN3)cc2N1` [Example 14], the inhibitory constant (Ki) in experiment [1] amounted to 52 nM; in experiment [2] (setting [5]), 842 nM; in experiment [4] it was 6520 nM.

`Cc1c(NC2=NCCN2)ccc2c1NC(=O)CO2` [Example 15]: the Ki in experiment [1] turned out to be 17 nM; in experiment [2] (setting [5]) it was 241 nM; in experiment [3], 134 nM.

As for `Brc1c(NC2=NCCN2)ccc2c1NCCN2` [Example 9], the Ki in experiment [1] amounted to 6.1 nM; in experiment [2] (setting [5]), 47 nM; in experiment [3] it was 120 nM; in experiment [4], 4590 nM.

As to `Cc1c(NC2=NCCN2)ccc2c1NCCO2` [Example 16], the Ki came to 1.2 nM in experiment [1], 30 nM in experiment [2] (setting [5]), 8.9 nM in experiment [3] and 12100 nM in experiment [4].

For `Cc1c(O)cccc1Nc1ncc[nH]1` [Example 20], the Ki in experiment [1] was found to be 30 nM; in experiment [2] (setting [5]) it was 895 nM; in experiment [3], 457 nM.

In the case of `COc1c(C(C)(C)C)cc(C)c(Nc2ncc[nH]2)c1C` [Example 22], the Ki in experiment [1] was 4.9 nM; in experiment [2] (setting [5]) it was 221 nM; in experiment [3], 88 nM; in experiment [4], 870 nM.

For the compound `Cc1c(NC2=NCCN2)ccc2c1OCCO2` [Example 13], the Ki was 0.25 nM in experiment [1], 4 nM in experiment [2], 3.5 nM in experiment [3] and 1220 nM in experiment [4].

For `c1cc2c(cc1NC1=NCCN1)OCCO2` [Example 11], the values for the Ki in experiment [2] and in experiment [4] were 28 nM and 2030 nM, respectively.

One may read the Ki as the dissociation constant of the complex between target and ligand, obtained from inhibition or displacement.

(Values after patent US6087361A, “Aryl-imidazolines and aryl-imidazoles useful as α-2 adrenergic agonists without cardiovascular side effects” (Allergan Sales, Inc., priority 1997, dated 2000).)
